Assay results as given in US4582847A, “4-chloro-2-phenylimidazole-5-acetic acid derivatives and use as diuretics and hypotensives” (Takeda Chemical Industries, Ltd., priority 1983, dated 1986).

Legend:
[1] = tested on: dogs with renal hypertension; test: Antihypertensive action in dogs with renal hypertension; format: in vivo, beagle dog; conditions: dose 10 mg, oral; for Diastolic blood pressure after 1 hr. / Systolic blood pressure after 1 hr.: 1 hr after administration; for Diastolic blood pressure after 2 hrs. / Systolic blood pressure after 2 hrs.: 2 hrs after administration; for Diastolic blood pressure after 4 hrs. / Systolic blood pressure after 4 hrs.: 4 hrs after administration; for Diastolic blood pressure after 8 hrs. / Systolic blood pressure after 8 hrs.: 8 hrs after administration; for Diastolic blood pressure before administration / Systolic blood pressure before administration: before administration (baseline)
Excerpt: Antihypertensive action in dogs with renal hypertension
Male adult beagle dogs were laparotomized under pentobarbital anesthesia and the left renal artery was constricted with a silver clip so as to reduce the renal blood flow to about 30%. After the operation, the animals were kept for at least 2 months and the individuals having a systolic pressure of at least about 180 mmHg were used in the test. […] Blood pressure determinations were made using a plethysmograph (Narco, DE-300). Each drug was sealed in a gelatin capsule and administered by the oral route. The blood pressure was monitored up to 8 hours after administration.

[2] = tested on: Angiotensin II (rabbit aortic vessel); test: Angiotensin II-antagonizing activity (rabbit aortic vessel); conditions: AII 4×10^-9 M, 15 min treatment
Description: Angiotensin II (briefly, AII)-antagonizing activity of the compound (I) of this invention (rabbit aortic vessel)
The method of preparing the aortic vessel specimens and the reaction conditions employed were as described in European Journal of Pharmacology 18, 316 (1972). AII was used in a concentration of 4×10^-9 M, and the change in isometric tension of the untreated vessel specimen was measured as control. As a test, the vessel was treated with the test compound for 15 minutes and a similar determination was made. The two results were compared and the inhibition rate was calculated by means of the following formula.
Inhibition rate (%) [formula]

dogs = test: Diuretic action in dogs (method of W. L. Lipschitz); format: in vivo; conditions: dog, n = 3, control group = 1.00
Description: (§1) The test was conducted in rats and dogs, in accordance with the method of W. L. Lipschitz. The numerals in the table denote the values for the treated groups with the value for control group being taken as 1.00. [formula]

rats = test: Diuretic action in rats (method of W. L. Lipschitz); format: in vivo; conditions: rat, 30 mg/kg P.O., n = 6; control group = 1.00
Description: as §1

SMILES | Diastolic blood pressure after 1 hr. [1] [mmHg] | Systolic blood pressure after 1 hr. [1] [mmHg] | Diastolic blood pressure after 2 hrs. [1] [mmHg] | Systolic blood pressure after 2 hrs. [1] [mmHg] | Diastolic blood pressure after 4 hrs. [1] [mmHg] | Systolic blood pressure after 4 hrs. [1] [mmHg] | Diastolic blood pressure after 8 hrs. [1] [mmHg] | Systolic blood pressure after 8 hrs. [1] [mmHg] | Diastolic blood pressure before administration [1] [mmHg] | Systolic blood pressure before administration [1] [mmHg] | Inhibition rate (%) ([2]; concentration of drug 10^-5 M) | Diuretic action UK V (dogs; 3 mg/kg P.O.) | Diuretic action UNa V (dogs; 3 mg/kg P.O.) | Diuretic action UV (dogs; 3 mg/kg P.O.) | Diuretic action UK V (dogs; 30 mg/kg P.O.) | Diuretic action UNa V (dogs; 30 mg/kg P.O.) | Diuretic action UV (dogs; 30 mg/kg P.O.) | Diuretic action UK V (rats) | Diuretic action UNa V (rats) | Diuretic action UV (rats) | other results
Cc1cc(Cn2c(-c3ccccc3)nc(Cl)c2CC(=O)O)ccc1O [Example 1, 4-chloro-1-(4-hydroxy-3-methylbenzyl)-2-phenylimidazole-5-acetic acid] | 123 ± 4 | 189 ± 5 | 93 ± 7 | 165 ± 6 | 89 ± 7 | 155 ± 8 | 110 ± 8 | 167 ± 8 | 124 ± 2 | 201 ± 5 | 100 | 2.20 | 2.97 | 3.41 | 4.88 | 4.24 | 5.11 | – | – | – | Inhibition rate (%) ([2]; concentration of drug 10^-6 M): 75%
O=C(O)Cc1c(Cl)nc(-c2ccccc2)n1Cc1ccc(O)cc1 [4-Chloro-1-(4-hydroxybenzyl)-2-phenylimidazole-5-acetic acid, reference compound] | – | – | – | – | – | – | – | – | – | – | 46 | – | – | – | – | – | – | – | – | – | –
CC(=O)Oc1ccc(Cn2c(-c3ccccc3)nc(Cl)c2CC(=O)O)cc1C [Ref. Example 3, 4-chloro-1-(4-acetoxy-3-methylbenzyl)-2-phenylimidazole-5-acetic acid] | – | – | – | – | – | – | – | – | – | – | – | – | – | – | – | – | – | 2.92 | 6.54 | 8.22 | –
COc1ccc(Cn2c(-c3ccccc3)nc(Cl)c2CC(=O)O)cc1C [4-Chloro-1-(4-methoxy-3-methylbenzyl)-2-phenylimidazole-5-acetic acid, reference compound] | 113 ± 6 | 185 ± 5 | 116 ± 7 | 181 ± 6 | 115 ± 4 | 181 ± 2 | 115 ± 5 | 188 ± 5 | 123 ± 6 | 189 ± 2 | – | 0.86 | 1.10 | 1.20 | 2.53 | 1.73 | 1.67 | 3.33 | 6.36 | 8.25 | –
CCCC(=O)Oc1ccc(Cn2c(-c3ccccc3)nc(Cl)c2CC(=O)O)cc1C [Ref. Example 4, 4-chloro-1-(4-n-butyryloxy-3-methylbenzyl)-2-phenylimidazole-5-acetic acid] | – | – | – | – | – | – | – | – | – | – | – | – | – | – | – | – | – | 2.80 | 5.82 | 6.69 | –
